One block for each substance: values may come before it.
Tests used:
[1] = system: anti-RhD monoclonal antibody T27 (LHM169/81); experiment: Biopanning of phage-peptide libraries with anti-RhD T27; assay type: binding, Human
Text: (§1) Three different phage libraries from New England Biolabs. (Ph.D. 7 and Ph.D. 12 displaying linear 7- and 12-mer peptides, respectively and Ph.D. C7C displaying 7-mer peptides constrained by a disulphide bridge at their termini) and a linear 15mer library (kindly provided by Prof. George P. Smith, University of Missouri) were used in biopanning experiments with 10 different monoclonal antibodies and a polyclonal preparation (Table 1).
(§2) For each target antibody/library combination, a separate well of a 96-well Immulon 4 flat-bottomed ELISA plate (Thermo Labsystems) was coated with 5 μg of antibody in 150 μl ELISA coating buffer (15 mM Na2CO3, 35 mM NaHCO3, pH9.6). Plates were sealed and incubated at 4° C. overnight. Unbound antibody was discarded and 350 μl of blocking buffer (0.1M NaHCO3/3% skimmed milk powder) was added to each well. Plates were sealed and incubated for 1 hour at 4° C. The blocking buffer was removed and the wells were washed six times with 300 μl TBS/0.1% Tween 20. Approximately 2×10^11 plaque forming units (pfu) in 100 μl TBS/0.1% Tween 20 were added to each well and the plates were incubated at room temperature for 1 hour. Wells were washed ten times with 300 μl TBS/0.1% Tween 20. Bound phage were eluted by incubation with 100 μl of 0.2M glycine-HCl/BSA, pH2.2 (1 mg/ml) for 10 minutes, then neutralised with 15 μl of 1M Tris-HCL (pH9.1). An aliquot of the Round 1 eluate was removed and titred. The remainder of the eluted phage were amplified by infection of E. coli ER2538 cells for 4.5 hours at 37° C. The cultures were centrifuged for 10 minutes at 10,000 rpm at 4° C. The supernatants were recovered, ⅙ volume PEG/NaCl (20% polyethylene glycol 8000; 2.5M NaCl) added, then incubated overnight at 4° C. The PEG-precipitated phage were centrifuged at 10,000 rpm for 15 minutes at 4° C. The supernatant was removed and the phage pellet resuspended in 200 μl TBS. Two further rounds of panning were undertaken and approximately 2×10^11 pfu of the Round 2 or Round 3 amplified eluates were used as input phage. Round 3 eluates were titrated but not amplified. Individual plaques were amplified and subjected to PCR amplification, prior to DNA sequence analysis. The specificity of peptide-antibody binding was subsequently determined using both phage ELISA and SPOTs techniques.

[2] = system: anti-RhE monoclonal antibody E0002; experiment: SPOTs membrane hybridisation with anti-RhE monoclonal E0002; assay type: binding, Human; settings: FIG. 9; 36 RhE peptide mimotopes; CPep75 (Spot 37), CPep76 (Spot 38) negative controls
Method: (§3) The peptide mimotopes were synthesised by the SPOT method (Frank; 1992) using F-moc chemistry. The peptides were anchored to an amino-PEG derivatised cellulose membrane (Intavis AG) and synthesised as discrete spots. Synthesis was by stepwise elongation of the peptide chain from C-terminus to the N-terminus, by manual pipetting of the respective amino acids, according to the Sigma Genosys protocol. Incubation times were modified when using Intavis AG membranes. After addition of the final amino acid, the terminal residues and side chains of the peptides were deprotected and the membrane was washed with methanol; air dried and then stored at −20° C. prior to use.
(§4) A membrane was placed in a 50 ml Falcon tube and blocked overnight at 4° C. with gentle agitation in TBS/0.25% Tween 20/5% skimmed milk powder. A 2 μg/ml dilution of the primary (1°) antibody (monoclonal or polyclonal) was prepared in TBS/0.25% Tween20/5% skimmed milk powder before incubation with the membrane for 1 hour at room temperature on a spiral rotor. Following 4 washes, each for 5 minutes with 20 ml of TBS/0.25% Tween20, the membrane was incubated for 1 hour at room temperature with a 1/5000 dilution of the secondary (2°) antibody, prepared in TBS/0.25% Tween20/5% skimmed milk powder. Peroxidase labelled rabbit anti-mouse IgG (Sigma) was used for the detection of the murine anti-Fy^a (LM487) and anti-Fy^b (LM447) 1° antibodies and peroxidase labelled goat anti-human IgG (Pharmacia) for the detection of the human 1° antibodies. Following 4 washes, each for 5 minutes with 20 ml of TBS/0.25% Tween20, the membrane was blotted to remove excess fluid. Bound antibody was detected by chemiluminescence. ECL detection reagents (Amersham Biosciences) were mixed and overlaid on the membrane for 2 minutes. The chemiluminescent substrate was removed and the membrane blotted to remove excess fluid. Positive spots were visualised following exposure to Hyperfilm ECL (Amersham Biosciences) for a series of short incubation times (5 seconds to 10 minutes).
The RhD, RhE and Rhe peptide mimotopes (see Tables 4 & 5) were synthesised by SPOTs and hybridisation of the membranes was undertaken with the appropriate antibodies (Table 1). FIGS. 7-10 show examples of peptide mimotopes reacting specifically with the antibody originally used in their selection.

[3] = system: anti-Fy^b monoclonal antibody (LM447); experiment: SPOTs membrane hybridisation with anti-Fy^b antibody; assay type: binding, Murine; settings: for SPOTs binding of anti-Fy^b antibody LM447 to membrane-synthesised peptide: FIG. 2, 20 Fyb peptides in duplicate, CPep75 (Spot 21) positive control, 2 μg/ml primary antibody, chemiluminescence; for SPOTs binding of anti-Fy^b antibody LM447 to consensus sequence-derived substituted peptides: FIG. 6, 16 peptides Fyb72-87, signal dramatically lower than positive control CPep75 (Spot 17)
Method: as §3, §4

[4] = system: anti-Fy^b monoclonal antibody (LM447); experiment: Phage ELISA (capture ELISA) of phage-peptides on coated anti-Fy^b antibody; assay type: binding, Murine; settings: FIG. 1, LM447 coated from 10 μg/ml stock, phage culture supernatant, OD450 greater than 0.1 considered positive, 20 phage assayed
Method: (§5) The ability of the recovered phage-peptides to react with the antibodies used in their selection was confirmed by capture ELISA. A 10 μg/ml stock of appropriate monoclonal antibody was prepared in ELISA coating buffer and 150 μl aliquots were added to wells of an Immulon 4 ELISA plate, and then incubated overnight at 4° C. Unbound antibody was discarded and the wells were blocked with 350 μl of blocking buffer (0.1M NaHCO3/3% skimmed milk powder) for 1 hour at 4° C. The wells were washed three times with 300 μl TBS/0.5% Tween 20 and 100 μl of selected phage culture supernatants were added to appropriate wells for 1 hour at room temperature. Unbound phage were removed and the wells washed six times with 300 μl TBS/0.5% Tween 20. A 1:5000 dilution of horseradish peroxidase (HRP) conjugated anti-M13, secondary antibody was prepared in blocking buffer and 100 μl aliquots added to each well. Following incubation for 1 hour at room temperature the wells were washed six times with 300 μl TBS/0.5% Tween 20. To develop the reactions, a 200 μl aliquot of o-phenylenediamine dihydrochloride (OPD) substrate (Sigma) was added to each well. The absorbance at 450 nm was measured, following incubation at room temperature for 1 hour, by a microplate ELISA reader. An OD450 signal greater than 0.1 was considered positive.
The phage ELISA results confirmed the binding of the anti-Fy^b monoclonal, LM447. A 10 μg/ml stock of this monoclonal antibody was prepared in ELISA coating buffer and 150 μl aliquots were added to wells of an Immulon 4 ELISA plate, and then incubated overnight at 4° C. Unbound antibody was discarded and the wells were blocked with 350 μl of blocking buffer for 1 hour at 4° C. The wells were washed three times with 300 μl TBS/0.5% Tween 20 and 100 μl of selected phage culture supernatants were added to appropriate wells for 1 hour at room temperature. Unbound phage were removed and the wells washed six times with 300 μl TBS/0.5% Tween 20. A 1:5000 dilution of horseradish peroxidase (HRP) conjugated anti-M13, secondary antibody was prepared in blocking buffer and 100 μl aliquots added to each well. Following incubation for 1 hour at room temperature the wells were washed six times with 300 μl TBS/0.5% Tween 20. To develop the reactions, 200 μl aliquots of o-phenylenediamine dihydrochloride (OPD) substrate (Sigma) was added to each well. The absorbance at 450 nm was measured following incubation at room temperature for 1 hour. The absorbance values at 450 nm, confirmed the binding of 14 (Peptides Fyb1, Fyb2, Fyb4-5, Fyb7-13, Fyb25, 27 & 28) of the 20 phage assayed (see FIG. 1).

[5] = system: anti-Fy^a monoclonal antibody (LM487); experiment: Phage ELISA (capture ELISA) of phage-peptides on coated anti-Fy^a antibody; assay type: binding, Murine; settings: FIG. 3; 19 Fya phage-peptide clones (Fya1-18 & Fya25); OD450 greater than 0.1 considered positive
Method: as §5
Phage ELISA analysis of 19 “Fy^a” phage-peptide clones (Peptides Fya1-18 & Fya25; see Table 3 for sequence details) confirmed the binding specificity of the LM487 antibody for the Fy^a phage-peptides.

[6] = system: anti-RhD monoclonal antibody T22 (LHM 169/80); experiment: Biopanning of phage-peptide libraries with anti-RhD T22; assay type: binding, Human
Text: as §1, §2

Substance: RhD 10 (NYPAVVSNSLLA)
- Panning Antibody (antibody that selected the phage-peptide in biopanning) [1]: RhD T27

- SPOTs binding of anti-RhE monoclonal antibody E0002 [2]: Specific binding
Substance: RhE25: RhE peptide mimotope, Table 5 (GLSYYALITRYLGAA)

- SPOTs binding of anti-Fy^b antibody LM447 to membrane-synthesised peptide [3]: Binding was also observed
Substance: PDGDYDANLEAAAP [CPep75, 14-mer immunisation peptide used in the development of the LM447 antibody, reference compound]
- Reciprocal SPOTs hybridisation: binding of anti-Fy^b monoclonal antibody ([3]; FIG. 5, Spots 1-37 = Fya 1-37, Spots 38-40 = Fya17, Fya25, Fya35, Spot 41 Cpep75, 42 Cpep76, 43 CPep118, 44 Fyb1, membranes hybridised in parallel with both antibodies): capable of binding the anti-Fy^b antibody

Substance: RhD 3 (NLLPAKL)
- Panning Antibody (antibody that selected the phage-peptide in biopanning) [1]: RhD T27

- SPOTs binding of anti-Fy^b antibody LM447 to membrane-synthesised peptide [3]: failed to react
Substance: MYQDTPPPRKNV [Fyb1]
- Phage ELISA binding of phage-peptide to anti-Fy^b antibody LM447 (absorbance at 450 nm) [4]: phage ELISA signals equally as strong as Peptides Fyb12 and Fyb13

- SPOTs binding of anti-Fy^b antibody LM447 to membrane-synthesised peptide [3]: successfully bound
Substance: TFQYLDPPPFTP [Fyb13]

- SPOTs binding of anti-Fy^b antibody LM447 to consensus sequence-derived substituted peptides [3]: capable of binding
Substance: MFQPDNPPTKNP [Fyb84]

Substance: RhD 1 (GLFKIQP)
- Panning Antibody (antibody that selected the phage-peptide in biopanning) [1]: RhD T27

- SPOTs binding of anti-Fy^b antibody LM447 to membrane-synthesised peptide [3]: successfully bound
Substance: TFQPRSWPNIDL [Fyb12]

Substance: RhD 13 (VIDWLLCPRGFSACM)
- Panning Antibody (antibody that selected the phage-peptide in biopanning) [1]: RhD T27

- SPOTs binding of anti-Fy^b antibody LM447 to membrane-synthesised peptide [3]: failed to react
Substance: MFQPTHWGTRLS [Fyb9]
- Phage ELISA binding of phage-peptide to anti-Fy^b antibody LM447 (absorbance at 450 nm) [4]: phage ELISA signals equally as strong as Peptides Fyb12 and Fyb13

Substance: RhD 15 (LHAWHRNTIGWWIGF)
- Panning Antibody (antibody that selected the phage-peptide in biopanning) [1]: RhD T27

Substance: RhD 12 (HQNPWLLWPRGF)
- Panning Antibody (antibody that selected the phage-peptide in biopanning) [1]: RhD T27

Substance: RhD 14 (DRRIFWWSLRSAPGA)
- Panning Antibody (antibody that selected the phage-peptide in biopanning) [1]: RhD T27

- Phage ELISA binding of phage-peptide to anti-Fy^a antibody LM487 [5]: failed to bind
Substance: Fya18: Fya peptide mimotope, Table 3 (PSPGQI)

Substance: RhD 8 (SNVPLHWILSPR)
- Panning Antibody (antibody that selected the phage-peptide in biopanning) [1]: RhD T27

Substance: RhD 7 (TTVPDTWVLFPR)
- Panning Antibody (antibody that selected the phage-peptide in biopanning) [1]: RhD T27

- Phage ELISA binding of phage-peptide to anti-Fy^a antibody LM487 [5]: failed to bind
Substance: Fya2: Fya peptide mimotope, Table 3 (TNLRLPA)

Substance: RhD 36 (HHVFTPNCYPIC)
- Panning Antibody (antibody that selected the phage-peptide in biopanning) [6]: RhD T22

Substance: RhD 28 (NDYSDSNQVPAS)
- Panning Antibody (antibody that selected the phage-peptide in biopanning) [6]: RhD T22

Substance: RhD 21 (WGLWWTG)
- Panning Antibody (antibody that selected the phage-peptide in biopanning) [6]: RhD T22

Substance: RhD 2 (LGHHNPH)
- Panning Antibody (antibody that selected the phage-peptide in biopanning) [1]: RhD T27

- Phage ELISA binding of phage-peptide to anti-Fy^a antibody LM487 [5]: failed to bind
Substance: Fya14: Fya peptide mimotope, Table 3 (GDWLHW)

Substance: RhD 35 (VYALGCWPICHK)
- Panning Antibody (antibody that selected the phage-peptide in biopanning) [6]: RhD T22

Substance: RhD 9 (WHFEWWRATPSG)
- Panning Antibody (antibody that selected the phage-peptide in biopanning) [1]: RhD T27

- SPOTs binding of anti-Fy^b antibody LM447 to consensus sequence-derived substituted peptides [3]: capable of binding
Substance: MFQPDNPPTKNV [Fyb85]

Substance: RhD 33 (AMDCFPICLWNP)
- Panning Antibody (antibody that selected the phage-peptide in biopanning) [6]: RhD T22

Substance: RhD 24 (FHWWPRTQDPHR)
- Panning Antibody (antibody that selected the phage-peptide in biopanning) [6]: RhD T22

Substance: RhD 22 (LLGLTET)
- Panning Antibody (antibody that selected the phage-peptide in biopanning) [6]: RhD T22

Substance: RhD 6 (FSPNNSETTNYT)
- Panning Antibody (antibody that selected the phage-peptide in biopanning) [1]: RhD T27

Substance: RhD 5 (TPGSGQF)
- Panning Antibody (antibody that selected the phage-peptide in biopanning) [1]: RhD T27

Substance: RhD 11 (DVYDTRPYHGFM)
- Panning Antibody (antibody that selected the phage-peptide in biopanning) [1]: RhD T27

- SPOTs binding of anti-Fy^b antibody LM447 to membrane-synthesised peptide [3]: failed to react
Substance: MFQEHTPAFGGL [Fyb7]
- Phage ELISA binding of phage-peptide to anti-Fy^b antibody LM447 (absorbance at 450 nm) [4]: phage ELISA signals equally as strong as Peptides Fyb12 and Fyb13

- SPOTs binding of anti-Fy^b antibody LM447 to membrane-synthesised peptide [3]: failed to react
Substance: MVQELPFVLRSK [Fyb11]
- Phage ELISA binding of phage-peptide to anti-Fy^b antibody LM447 (absorbance at 450 nm) ([4]; listed as Fybll): phage ELISA signals equally as strong as Peptides Fyb12 and Fyb13

Substance: RhD 4 (HTALSTS)
- Panning Antibody (antibody that selected the phage-peptide in biopanning) [1]: RhD T27

Substance: RhD 17 (WGIWWNN)
- Panning Antibody (antibody that selected the phage-peptide in biopanning) [6]: RhD T22
